In ChEMBL document CHEMBL5465560, “Selectivity Literature for EUbOPEN Chemogenomic Library” (2024):

How the values were obtained:
[1] = target: T1, Ephrin type-A receptor 6 (Homo sapiens) (UniProt Q9UF33); test: Selectivity interaction (KinomeScan (DiscoverX)) EUB0000595a EPHA6; conditions: at 10 µM
T1 sequence (whole entry): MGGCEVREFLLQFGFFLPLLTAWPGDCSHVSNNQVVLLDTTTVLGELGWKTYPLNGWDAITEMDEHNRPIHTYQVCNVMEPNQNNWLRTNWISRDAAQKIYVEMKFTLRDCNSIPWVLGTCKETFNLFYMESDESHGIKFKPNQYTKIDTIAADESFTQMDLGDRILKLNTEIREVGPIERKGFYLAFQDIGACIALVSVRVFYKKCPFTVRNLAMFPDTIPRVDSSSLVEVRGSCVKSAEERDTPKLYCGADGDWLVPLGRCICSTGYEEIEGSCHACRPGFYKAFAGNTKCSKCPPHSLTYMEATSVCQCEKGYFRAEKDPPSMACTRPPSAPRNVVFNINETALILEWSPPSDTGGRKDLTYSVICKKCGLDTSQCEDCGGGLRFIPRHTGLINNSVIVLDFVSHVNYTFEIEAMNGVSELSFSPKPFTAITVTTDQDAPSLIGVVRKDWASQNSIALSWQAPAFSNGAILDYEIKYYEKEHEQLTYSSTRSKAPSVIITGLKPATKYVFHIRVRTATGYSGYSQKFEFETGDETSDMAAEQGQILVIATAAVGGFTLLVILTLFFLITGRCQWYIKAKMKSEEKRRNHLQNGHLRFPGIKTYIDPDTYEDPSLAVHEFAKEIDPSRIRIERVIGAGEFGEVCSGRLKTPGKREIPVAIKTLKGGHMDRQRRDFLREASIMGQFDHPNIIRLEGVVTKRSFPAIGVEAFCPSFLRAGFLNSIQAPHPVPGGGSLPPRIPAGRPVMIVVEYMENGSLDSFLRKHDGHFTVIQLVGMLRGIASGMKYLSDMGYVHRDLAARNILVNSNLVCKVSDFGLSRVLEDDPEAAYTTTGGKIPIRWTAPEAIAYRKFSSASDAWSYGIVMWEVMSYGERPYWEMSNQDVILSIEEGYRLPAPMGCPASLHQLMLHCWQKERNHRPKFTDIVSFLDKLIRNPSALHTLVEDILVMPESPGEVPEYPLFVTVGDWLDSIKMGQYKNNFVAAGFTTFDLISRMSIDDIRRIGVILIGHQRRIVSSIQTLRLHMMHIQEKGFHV

[2] = target: Epithelial discoidin domain-containing receptor 1 (Homo sapiens) (UniProt Q08345); conditions: at 10 µM
Epithelial discoidin domain-containing receptor 1 (Homo sapiens), sequence (Q08345 whole entry, the tested form may be a part): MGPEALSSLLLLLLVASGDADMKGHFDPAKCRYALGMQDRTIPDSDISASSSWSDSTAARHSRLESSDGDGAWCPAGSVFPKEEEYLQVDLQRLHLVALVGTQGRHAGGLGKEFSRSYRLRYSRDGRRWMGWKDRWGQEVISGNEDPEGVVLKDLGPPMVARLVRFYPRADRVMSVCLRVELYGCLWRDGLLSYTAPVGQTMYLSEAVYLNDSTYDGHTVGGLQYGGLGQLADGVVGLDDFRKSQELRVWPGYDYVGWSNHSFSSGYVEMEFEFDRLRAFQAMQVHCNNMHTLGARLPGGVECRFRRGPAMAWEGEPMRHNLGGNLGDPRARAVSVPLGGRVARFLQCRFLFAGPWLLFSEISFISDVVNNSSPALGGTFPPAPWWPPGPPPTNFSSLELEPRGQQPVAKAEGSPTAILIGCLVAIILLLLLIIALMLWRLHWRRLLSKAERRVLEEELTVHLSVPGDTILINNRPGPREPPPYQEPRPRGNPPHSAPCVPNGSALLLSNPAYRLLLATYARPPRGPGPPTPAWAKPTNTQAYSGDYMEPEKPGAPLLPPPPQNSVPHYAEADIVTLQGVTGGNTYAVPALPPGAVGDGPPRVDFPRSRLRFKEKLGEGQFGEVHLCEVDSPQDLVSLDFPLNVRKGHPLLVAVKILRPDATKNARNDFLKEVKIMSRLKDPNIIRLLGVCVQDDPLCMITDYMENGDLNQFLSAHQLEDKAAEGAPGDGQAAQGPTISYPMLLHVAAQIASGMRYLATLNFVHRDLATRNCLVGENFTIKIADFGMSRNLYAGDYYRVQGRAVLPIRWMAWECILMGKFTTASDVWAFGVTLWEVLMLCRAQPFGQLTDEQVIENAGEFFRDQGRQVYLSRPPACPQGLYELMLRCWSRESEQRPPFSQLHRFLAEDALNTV

[3] = target: T2, Ephrin type-A receptor 3 (Homo sapiens) (UniProt P29320); conditions: at 10 µM
T2 sequence (whole entry): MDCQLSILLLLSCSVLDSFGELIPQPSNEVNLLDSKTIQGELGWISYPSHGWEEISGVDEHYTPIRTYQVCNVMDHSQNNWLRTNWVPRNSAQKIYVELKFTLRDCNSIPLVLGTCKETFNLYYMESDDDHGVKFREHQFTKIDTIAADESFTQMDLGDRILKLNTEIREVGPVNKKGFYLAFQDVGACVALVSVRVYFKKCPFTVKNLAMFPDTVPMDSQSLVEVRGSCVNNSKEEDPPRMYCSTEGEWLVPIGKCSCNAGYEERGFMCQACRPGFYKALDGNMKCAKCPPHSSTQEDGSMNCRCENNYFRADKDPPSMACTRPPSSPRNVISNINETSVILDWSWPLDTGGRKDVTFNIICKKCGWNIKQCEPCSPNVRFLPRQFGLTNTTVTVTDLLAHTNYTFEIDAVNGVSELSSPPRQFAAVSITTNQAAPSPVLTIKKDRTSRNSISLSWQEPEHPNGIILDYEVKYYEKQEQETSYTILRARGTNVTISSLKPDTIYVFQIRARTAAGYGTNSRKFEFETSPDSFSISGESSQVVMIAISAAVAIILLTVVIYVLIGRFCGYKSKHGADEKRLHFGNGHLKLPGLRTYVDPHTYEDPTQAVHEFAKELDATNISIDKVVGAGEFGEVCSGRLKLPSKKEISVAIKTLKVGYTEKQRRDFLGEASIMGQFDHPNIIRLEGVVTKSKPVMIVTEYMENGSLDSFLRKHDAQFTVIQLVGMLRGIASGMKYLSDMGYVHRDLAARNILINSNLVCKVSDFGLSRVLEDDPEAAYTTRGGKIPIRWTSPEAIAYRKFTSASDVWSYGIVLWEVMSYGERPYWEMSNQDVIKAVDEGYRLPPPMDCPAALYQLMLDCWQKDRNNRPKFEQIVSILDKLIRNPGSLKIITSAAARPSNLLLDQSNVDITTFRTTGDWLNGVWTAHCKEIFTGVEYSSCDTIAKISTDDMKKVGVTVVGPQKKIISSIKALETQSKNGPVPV

[4] = target: Cyclin-dependent kinase 17 (Homo sapiens) (UniProt Q00537); test: Selectivity interaction (KinomeScan (DiscoverX)) EUB0001619a CDK17; conditions: at 1 µM
Cyclin-dependent kinase 17 (Homo sapiens), sequence (Q00537 whole entry, looked up): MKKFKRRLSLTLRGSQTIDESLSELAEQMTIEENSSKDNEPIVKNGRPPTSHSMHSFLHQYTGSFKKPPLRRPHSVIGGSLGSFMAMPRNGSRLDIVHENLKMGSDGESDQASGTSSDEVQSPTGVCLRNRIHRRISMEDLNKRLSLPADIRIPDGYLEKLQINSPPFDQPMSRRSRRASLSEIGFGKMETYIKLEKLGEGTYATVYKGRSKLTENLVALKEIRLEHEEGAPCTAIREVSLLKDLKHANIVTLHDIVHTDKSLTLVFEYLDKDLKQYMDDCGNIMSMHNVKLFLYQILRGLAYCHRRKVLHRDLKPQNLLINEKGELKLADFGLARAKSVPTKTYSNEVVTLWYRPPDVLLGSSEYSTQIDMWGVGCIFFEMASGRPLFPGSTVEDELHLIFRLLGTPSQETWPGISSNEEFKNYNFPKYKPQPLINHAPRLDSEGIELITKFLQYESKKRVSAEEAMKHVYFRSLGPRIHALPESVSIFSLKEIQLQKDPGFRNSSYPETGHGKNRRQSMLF

[5] = target: T3, Protein arginine N-methyltransferase 7 (Homo sapiens) (UniProt Q9NVM4); test: Selectivity interaction (Methyltransferase screen (Scintillation proximity assays)) EUB0000255b PRMT7
T3 sequence (whole entry): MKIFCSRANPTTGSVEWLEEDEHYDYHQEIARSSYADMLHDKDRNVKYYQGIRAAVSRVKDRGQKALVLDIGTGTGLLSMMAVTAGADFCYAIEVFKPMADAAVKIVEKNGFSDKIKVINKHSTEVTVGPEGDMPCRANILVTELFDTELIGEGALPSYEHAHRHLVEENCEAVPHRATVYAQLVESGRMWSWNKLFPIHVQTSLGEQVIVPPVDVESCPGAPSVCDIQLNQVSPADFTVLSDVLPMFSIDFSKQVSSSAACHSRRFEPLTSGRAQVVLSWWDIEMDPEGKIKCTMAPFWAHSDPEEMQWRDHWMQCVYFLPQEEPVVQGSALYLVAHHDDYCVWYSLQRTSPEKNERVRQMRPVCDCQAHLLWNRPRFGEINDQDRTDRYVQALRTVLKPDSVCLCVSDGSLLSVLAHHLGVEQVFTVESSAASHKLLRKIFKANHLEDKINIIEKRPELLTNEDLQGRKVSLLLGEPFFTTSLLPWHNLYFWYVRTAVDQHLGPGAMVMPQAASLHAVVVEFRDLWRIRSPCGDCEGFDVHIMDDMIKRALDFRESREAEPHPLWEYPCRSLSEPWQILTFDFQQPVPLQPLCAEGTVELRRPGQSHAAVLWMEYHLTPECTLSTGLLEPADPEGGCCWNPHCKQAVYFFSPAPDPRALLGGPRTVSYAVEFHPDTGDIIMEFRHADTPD

## COCC(=O)NC/C=C/c1ccc2ncnc(Nc3ccc(Oc4ccc(C)nc4)c(C)c3)c2c1 [CP-724714]
[1]
  % of control: 96%
[2]
  % of control: 52%

## Cc1cc([C@@H](C)Nc2ccccc2C(=O)O)c2nc(N3CCOCC3)cc(=O)n2c1 [AZD-6482]
[3]
  % of control: 79%

## N#Cc1cccc(-c2c[nH]c3ncnc(N4CCOCC4)c23)c1
[4]
  % of control: 100%

## COCCN1CCC(c2cc(CN(C)C(=O)c3cccc(Oc4ccccc4)c3)ccn2)CC1
[5]; at 1 µM
  % activity: > 95%
[5]; at 10 µM
  % activity: > 90%
